Assay results taken from patent US20030229105A1, “Treatment of autoimmune disorders” (Cyclacel Limited, priority 2002, published 2003).

Legend:
HTLV-1 = experiment: p19 gag ELISA of TNF-α-treated HTLV-1-infected MT-2 cells; assay type: cell-based; conditions: TNF-α 2 h, then drug, 7 days
[1] = tested on: U1 cells (latently HIV-1 infected); experiment: Cell cycle analysis (PI staining, FACS) of HIV-1-infected U1 cells; conditions: U1 cells plus TNF-α (FIG. 2C)
cdk9-cyclin T complex = cdk9-cyclin T complex (Homo sapiens, UniProt P50750); experiment: cdk9-cyclin T immunoprecipitate CTD kinase assay from treated cells; conditions: 10 μM (FIG. 5B)
cdk9-cyclin T complex, sequence (P50750 whole entry): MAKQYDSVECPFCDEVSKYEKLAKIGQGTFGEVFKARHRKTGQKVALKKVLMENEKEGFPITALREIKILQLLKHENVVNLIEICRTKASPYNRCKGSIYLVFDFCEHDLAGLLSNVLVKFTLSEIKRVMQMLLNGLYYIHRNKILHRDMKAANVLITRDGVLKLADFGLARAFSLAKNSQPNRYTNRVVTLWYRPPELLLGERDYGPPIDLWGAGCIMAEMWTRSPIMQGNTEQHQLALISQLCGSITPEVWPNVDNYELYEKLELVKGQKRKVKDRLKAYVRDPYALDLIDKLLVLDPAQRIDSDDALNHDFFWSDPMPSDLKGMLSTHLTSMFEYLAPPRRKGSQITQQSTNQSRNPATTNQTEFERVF
cdk9-cyclin T complex, sequence (O60563 whole entry partner): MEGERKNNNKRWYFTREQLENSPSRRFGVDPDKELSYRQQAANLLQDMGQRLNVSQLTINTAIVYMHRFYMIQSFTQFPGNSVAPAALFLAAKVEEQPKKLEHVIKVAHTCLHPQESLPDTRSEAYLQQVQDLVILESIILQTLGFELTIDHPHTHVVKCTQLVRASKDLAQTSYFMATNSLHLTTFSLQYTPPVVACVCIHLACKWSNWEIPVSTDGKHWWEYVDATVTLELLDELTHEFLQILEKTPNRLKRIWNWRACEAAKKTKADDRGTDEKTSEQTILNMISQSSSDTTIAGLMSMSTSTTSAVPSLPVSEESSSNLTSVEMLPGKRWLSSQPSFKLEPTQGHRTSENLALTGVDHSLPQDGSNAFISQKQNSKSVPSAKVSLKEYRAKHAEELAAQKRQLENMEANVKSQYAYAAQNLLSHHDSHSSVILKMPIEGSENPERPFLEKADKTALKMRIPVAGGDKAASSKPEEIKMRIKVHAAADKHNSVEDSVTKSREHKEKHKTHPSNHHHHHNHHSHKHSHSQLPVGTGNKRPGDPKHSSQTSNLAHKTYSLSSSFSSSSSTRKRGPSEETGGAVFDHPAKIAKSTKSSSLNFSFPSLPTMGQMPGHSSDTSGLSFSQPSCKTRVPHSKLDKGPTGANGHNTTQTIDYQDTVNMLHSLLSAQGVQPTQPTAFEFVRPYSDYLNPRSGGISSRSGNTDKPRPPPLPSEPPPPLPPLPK

[2] = tested on: U937 uninfected monocytic parental cell line; experiment: Cell cycle analysis (PI staining, FACS) of uninfected U937 cells; conditions: U937 cells (FIG. 2C)
cdk6 = cdk6 (Homo sapiens, UniProt Q00534); conditions: cited from earlier work
cdk6, sequence (Q00534 whole entry): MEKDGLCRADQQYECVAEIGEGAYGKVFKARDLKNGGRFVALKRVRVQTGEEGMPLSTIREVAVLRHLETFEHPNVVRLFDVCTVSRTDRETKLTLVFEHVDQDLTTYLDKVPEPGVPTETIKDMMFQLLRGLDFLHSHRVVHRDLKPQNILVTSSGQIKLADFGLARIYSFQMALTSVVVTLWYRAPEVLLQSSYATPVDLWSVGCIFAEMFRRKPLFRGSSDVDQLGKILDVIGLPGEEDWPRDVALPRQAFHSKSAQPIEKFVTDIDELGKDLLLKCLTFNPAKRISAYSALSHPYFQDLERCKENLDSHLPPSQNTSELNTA
cdk6, sequence (P30279 whole entry partner): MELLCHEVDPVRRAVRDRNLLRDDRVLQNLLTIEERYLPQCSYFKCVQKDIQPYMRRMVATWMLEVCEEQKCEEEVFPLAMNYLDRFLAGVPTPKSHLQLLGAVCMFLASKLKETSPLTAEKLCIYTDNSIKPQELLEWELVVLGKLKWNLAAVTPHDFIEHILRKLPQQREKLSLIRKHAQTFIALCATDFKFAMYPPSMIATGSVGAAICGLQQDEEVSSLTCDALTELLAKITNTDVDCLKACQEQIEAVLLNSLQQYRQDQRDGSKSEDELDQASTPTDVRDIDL

PARP = experiment: Immunoblot of PARP cleavage; assay type: cell-based; conditions: induced ACH2 cells exposed to Roscovitine
Source text: (§1) Apoptosis and necrosis are two pathways that lead to cell death. Apoptosis is characterized by a series of morphological features, including cell shrinkage, plasma membrane blebbing, phosphatidylserine translocation to the outer leaflet of the plasma membrane, nuclear condensation, and DNA fragmentation (1). To distinguish apoptotic from necrotic cells, we performed a flow cytometry experiment using Annexin V and PI double staining. Annexin V is a sensitive probe for phosphatidylserine, and PI was used to detect membrane loss, since membrane loss leads to the accessibility of PI staining to DNA. […] At 48 h after drug treatment, most of the apoptotic cells were found at the late stage of apoptosis and not in the necrotic population (FIG. 6A). We next investigated whether the apoptotic cascade through the caspase-3 pathway was activated under drug treatment. […] Absorbances of the samples were read every 60 min in a Spectramax 250 microplate reader at 405 nm.
(§2) Cells were collected, stained with PI and FITC-Annexin V, and analyzed by FACS. […] The antigen-antibody complexes were detected using ^125I-labeled protein G. (C) Cells were washed in PBS and analyzed for caspase-3 activity using a colorimetric protease assay kit (Chemicon). […] Absorbances of samples were read every 60 min in a microplate reader at 405 nm.

[3] = tested on: HIV-1 genomic, structural, and regulatory RNAs; experiment: Northern blot with whole genomic HIV-1 probe in ACH2 cells; assay type: cell-based; conditions: ACH2, TNF-α, then increasing concentrations (1, 10, 50 μM)
Experimental: At days 2, 4, and 6, the supernatants were collected, and the released HIV-1 particles were measured by using a p24 antigen ELISA assay. (B) Twenty micrograms of total RNA was separated on an RNA-formaldehyde-agarose gel, transferred, and probed with full-length labeled HIV-1 genome RNA. The hybridized genomic RNA, singly spliced (structural), and doubly spliced (regulatory) RNAs were exposed and counted by using Molecular Dynamic PhosphorImager software.

[4] = tested on: HIV-1-infected ACH2 cells; experiment: Annexin V and PI double staining flow cytometry; assay type: cell-based; conditions: ACH2, especially with TNF-α; 10 μM, 48 h
Source text: as §1, with “6A).” for “6A). We next investigated whether the apoptotic cascade through the caspase-3 pathway was activated under drug treatment.”
as §2
Apoptosis was determined by using Annexin V and PI double staining (Annexin V-FITC; PharMingen International). […] Cells were acquired and analyzed using CELLQuest software (Becton Dickinson).

caspase-3 = experiment: Caspase-3 colorimetric protease assay (DEVD-pNA) on cell lysates; assay type: cell-based; conditions: induced ACH2 cells, 37° C., 3 h
Source text: Apoptosis and necrosis are two pathways that lead to cell death. Apoptosis is characterized by a series of morphological features, including cell shrinkage, plasma membrane blebbing, phosphatidylserine translocation to the outer leaflet of the plasma membrane, nuclear condensation, and DNA fragmentation (1). To distinguish apoptotic from necrotic cells, we performed a flow cytometry experiment using Annexin V and PI double staining. Annexin V is a sensitive probe for phosphatidylserine, and PI was used to detect membrane loss, since membrane loss leads to the accessibility of PI staining to DNA. […] Absorbances of the samples were read every 60 min in a Spectramax 250 microplate reader at 405 nm.
as §2
Cells were washed in PBS and analyzed for caspase-3 activity by using a CPP32/Caspase-3 Colorimetric Protease Assay Kit (Chemicon, Temecula, Calif.) according to the manufacturers' instructions. […] Protein concentrations of the lysates were determined by using the bicinchoninic acid assay reagent (Pierce, Rockford, Ill.). […]

cdk4 = cdk4 (Homo sapiens, UniProt P11802); conditions: cited from earlier work
cdk4, sequence (P11802 whole entry, species assumed): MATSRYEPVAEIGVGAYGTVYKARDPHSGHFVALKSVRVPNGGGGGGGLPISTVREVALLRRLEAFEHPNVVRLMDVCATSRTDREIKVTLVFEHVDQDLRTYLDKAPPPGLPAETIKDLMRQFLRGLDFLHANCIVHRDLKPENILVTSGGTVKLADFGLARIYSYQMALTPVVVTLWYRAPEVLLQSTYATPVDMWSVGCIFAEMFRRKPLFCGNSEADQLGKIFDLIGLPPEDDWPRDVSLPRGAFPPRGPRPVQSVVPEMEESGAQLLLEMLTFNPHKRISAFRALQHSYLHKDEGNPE
cdk4, sequence (P24385 whole entry partner, species assumed): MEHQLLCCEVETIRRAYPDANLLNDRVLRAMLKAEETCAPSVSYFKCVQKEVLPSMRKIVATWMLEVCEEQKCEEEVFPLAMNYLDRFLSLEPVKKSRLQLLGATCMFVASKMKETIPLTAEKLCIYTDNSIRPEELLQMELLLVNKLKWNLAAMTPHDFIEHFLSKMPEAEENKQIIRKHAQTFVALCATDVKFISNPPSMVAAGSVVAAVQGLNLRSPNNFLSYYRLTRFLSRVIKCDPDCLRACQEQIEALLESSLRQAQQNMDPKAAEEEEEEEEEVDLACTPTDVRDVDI

Molecule | inhibition of HTLV-1 replication (p19 gag) (HTLV-1) | apoptosis in U1 cells [1] | cdk9 levels and activity on phosphorylation of RNA Pol II CTD (cdk9-cyclin T complex) | apoptosis in uninfected parental cells [2] | reported inhibition of cdk6 (cdk6) | PARP cleavage (PARP) | HIV-1 genomic, structural, and regulatory RNA levels [3] | number of apoptotic (Annexin V-stained) cells [4] | caspase-3 activity increase (caspase-3) | reported inhibition of cdk4 (cdk4)
CC(C)[C@H](CO)Nc1nc(Nc2cccc(Cl)c2)c2ncn(C(C)C)c2n1 [Purvalanol A] | inhibited HTLV-1 replication |  |  |  |  |  |  |  |  | 
Roscovitine |  | abundance of the apoptotic population | decrease of cdk9 levels and its activity | no apparent apoptosis | not cdk4 or -6 | almost completely cleaved | dramatically decreased | remarkable increase in the number of apoptotic cells | ~5 fold | not cdk4 or -6
